This is an account of results in US20240207410A1, “STABILIZED LIQUID COMPOSITIONS COMPRISING A LEVODOPA-TYROSINE CONJUGATE AND USES THEREOF” (NeuroDerm, Ltd., priority 2021, published 2024).

Data set [1] has as its system red blood cells (RBC). Kind of data set: Blood/plasma ratio, partitioning into red blood cells, human blood ex vivo. Type of data set: in vitro ADME. The following applies: human blood.
Data set [2] is described as follows: PK of high concentration LD-Tyr formulations comprising TRIS, 0.5% CD (Example 15B). The note with it: female, pig, plasma, sc, analyte LD-Tyr, 18-hour continuous SC infusion. Type of data set: in vivo, domestic pig. As for the experimental part: A series of PK and local-tox studies was completed in domestic pigs using several high concentration LD-Tyr formulations comprising 0.5% CD and varying amounts of TRIS, as detailed in Table 33, and dosing regimens, as detailed in Table 34. The PK profile of LD-Tyr as well as the LD resulting therefrom was determined following 18-hour continuous SC infusion to female domestic pigs. Each formulation was administered at one infusion site per animal using a Crono-ND infusion pump (Canè SpA Medical Technology, Rivoli, Italy) connected to an infusion set (Accu-chek®, FlexLink, Roche).
Blood samples for the determination of LD-Tyr and LD plasma levels were collected from the pigs at the following timepoints: […]

Setting [3] is: LD-Tyr/CD 30/0.5 % w/v, daily dose 2775/37.5 mg, n = 2.
Where [4] appears, read: LD-Tyr/CD 37/0.5 % w/v, daily dose 2640/30 mg, n = 3.
[5] abbreviates: LD-Tyr/CD 44/0.5 % w/v, daily dose 2700/45 mg, n = 1.

Where a SMILES comes first, the peptide text is derived from it. [ ]: non-standard residue; d: D form. Dopa = N[C@@H](Cc1ccc(O)c(O)c1)C(=O)O

As usually defined, the AUC(0-t) is the area under the concentration-time curve up to a stated or last time point. As usually defined, the Cmax is the highest concentration seen after dosing. What is called Tmax is the time at which the peak concentration occurs.

For `N[C@@H](Cc1ccc(O)c(O)c1)C(=O)N[C@@H](Cc1ccc(O)cc1)C(=O)O` [LD-Tyr, levodopa-tyrosine (LD-Tyr) conjugate of the formula (II)] (H-[Dopa]-Tyr-OH), the RBC binding result in data set [1] was “no RBC binding”. For the same compound, the KRBC/PL entry in data set [1] (all measured) is on record as “below one”. Moreover, in data set [2] (setting [3]), the area under the curve AUC(0-t) was 4800 ng·h/mL, the peak level (Cmax) was 445 ng/mL and the Tmax turned out to be 10 h. For the same compound, in data set [2] (setting [4]), the area under the curve AUC(0-t) was found to be 5600 ng·h/mL, the Cmax is 491 ng/mL and the Tmax was determined as 15 h. Further, in data set [2] (setting [5]), the AUC(0-t) came out at 534 ng·h/mL, the peak level (Cmax) was 49.6 ng/mL and the Tmax was 2 h.
